In US12043632B2, “6-heteroaryloxy benzimidazoles and azabenzimidazoles as JAK2 inhibitors” (Ajax Therapeutics, Inc., priority 2020, dated 2024):

biological target: T1, JAK2 (JH1domain-catalytic, Y1007F,Y1008F) kinase (Homo sapiens, UniProt O60674, Y1007F/Y1008F); experiment: JAK2 JH1 Domain Binding Assay; settings: qPCR readout
T1 construct: JAK2 (JH1domain-catalytic, Y1007F,Y1008F) kinase was expressed as N-terminal fusion; made in house; host or cells: transiently transfected HEK293 cells
T1 sequence (O60674 849-1124 Y1007F/Y1008F limits assumed): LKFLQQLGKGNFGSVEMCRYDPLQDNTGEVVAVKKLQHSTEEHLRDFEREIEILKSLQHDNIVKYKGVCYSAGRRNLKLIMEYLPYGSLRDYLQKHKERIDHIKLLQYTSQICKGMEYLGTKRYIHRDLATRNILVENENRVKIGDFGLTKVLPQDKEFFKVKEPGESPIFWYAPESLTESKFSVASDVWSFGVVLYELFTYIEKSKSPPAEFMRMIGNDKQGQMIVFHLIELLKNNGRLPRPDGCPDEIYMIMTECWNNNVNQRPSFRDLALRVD

Compound | Kd [nM]
Cn1c(Nc2cc(C(F)(F)F)cn(CCCN3CCOCC3)c2=O)nc2ncc(Oc3cnn4ccccc34)c(C#N)c21 [Example I-159, 1-methyl-2-((1-(3-morpholinopropyl)-2-oxo-5-(trifluoromethyl)-1,2-dihydropyridin-3-yl)amino)-6-(pyrazolo[1,5-a]pyridin-3-yloxy)-1H-imidazo[4,5-b]pyridine-7-carbonitrile] | < 10
Cn1c(Nc2cc(C(F)(F)F)cn(CCO)c2=O)nc2ncc(Oc3cnn4ccccc34)c(C#N)c21 [Example I-160, 2-((1-(2-hydroxyethyl)-2-oxo-5-(trifluoromethyl)-1,2-dihydropyridin-3-yl)amino)-1-methyl-6-(pyrazolo[1,5-a]pyridin-3-yloxy)-1H-imidazo[4,5-b]pyridine-7-carbonitrile] | < 10
Cn1cc(-n2cc(C(F)(F)F)cc(Nc3nc4ncc(Oc5cnn6cc(F)ccc56)c(Cl)c4n3C)c2=O)cn1 [Example I-161, 3-((7-chloro-6-((6-fluoropyrazolo[1,5-a]pyridin-3-yl)oxy)-1-methyl-1H-imidazo[4,5-b]pyridin-2-yl)amino)-1-(1-methyl-1H-pyrazol-4-yl)-5-(trifluoromethyl)pyridin-2(1H)-one] | < 10
Cn1c(Nc2cc(C(F)(F)F)cn([C@H]3C[C@@H](O)C3)c2=O)nc2ncc(Oc3cnn4cc(F)ccc34)c(Cl)c21 [Example I-162, cis-3-((7-chloro-6-((6-fluoropyrazolo[1,5-a]pyridin-3-yl)oxy)-1-methyl-1H-imidazo[4,5-b]pyridin-2-yl)amino)-1-(3-hydroxycyclobutyl)-5-(trifluoromethyl)pyridin-2(1H)-one] | < 10
Cn1c(Nc2cc(C(F)(F)F)cn(CCO)c2=O)nc2ncc(Oc3cnn4cc(F)ccc34)c(Cl)c21 [Example I-163, 3-((7-chloro-6-((6-fluoropyrazolo[1,5-a]pyridin-3-yl)oxy)-1-methyl-1H-imidazo[4,5-b]pyridin-2-yl)amino)-1-(2-hydroxyethyl)-5-(trifluoromethyl)pyridin-2(1H)-one] | < 10
CCn1c(C(C)(C)C)ncc(Nc2nc3ncc(Oc4cnn5ccncc45)c(Cl)c3n2C)c1=O [Example I-164, 2-(tert-butyl)-5-((7-chloro-1-methyl-6-(pyrazolo[1,5-a]pyrazin-3-yloxy)-1H-imidazo[4,5-b]pyridin-2-yl)amino)-3-ethylpyrimidin-4(3H)-one] | 10 to 50
Cn1c(=O)c(Nc2nc3ncc(Oc4cnn5ccncc45)c(Cl)c3n2C)cn(C2CC2)c1=O [Example I-165, 5-((7-chloro-1-methyl-6-(pyrazolo[1,5-a]pyrazin-3-yloxy)-1H-imidazo[4,5-b]pyridin-2-yl)amino)-1-cyclopropyl-3-methylpyrimidine-2,4(1H,3H)-dione] | 1000 to 5000
Cn1cc(C(F)(F)F)cc(Nc2nc3ncc(Oc4cnn5ccc(N6CCOCC6)cc45)c(Cl)c3n2C)c1=O [Example I-166, 3-((7-chloro-1-methyl-6-((5-morpholinopyrazolo[1,5-a]pyridin-3-yl)oxy)-1H-imidazo[4,5-b]pyridin-2-yl)amino)-1-methyl-5-(trifluoromethyl)pyridin-2(1H)-one] | < 10
Cn1c(Nc2cc(C(F)(F)F)cn([C@H]3C[C@@H](O)C3)c2=O)nc2ncc(Oc3cnn4ccccc34)c(C#N)c21 [Example I-167, cis-2-((1-(3-hydroxycyclobutyl)-2-oxo-5-(trifluoromethyl)-1,2-dihydropyridin-3-yl)amino)-1-methyl-6-(pyrazolo[1,5-a]pyridin-3-yloxy)-1H-imidazo[4,5-b]pyridine-7-carbonitrile] | < 10
Cn1c(Nc2cc(C(C)(C)C)n(C3COC3)n2)nc2ncc(Oc3cnn4ccncc34)c(C#N)c21 [Example I-168, 2-((5-(tert-butyl)-1-(oxetan-3-yl)-1H-pyrazol-3-yl)amino)-1-methyl-6-(pyrazolo[1,5-a]pyrazin-3-yloxy)-1H-imidazo[4,5-b]pyridine-7-carbonitrile] | 10 to 50
CN1CC[C@H](n2nc(Nc3nc4ncc(Oc5cnn6cc(F)ccc56)c(Cl)c4n3C)cc2C(C)(C)C)C1 [Example I-169, (S)—N-(5-(tert-butyl)-1-(1-methylpyrrolidin-3-yl)-1H-pyrazol-3-yl)-7-chloro-6-((6-fluoropyrazolo[1,5-a]pyridin-3-yl)oxy)-1-methyl-1H-imidazo[4,5-b]pyridin-2-amine] | < 10
CN1CC[C@@H](n2nc(Nc3nc4ncc(Oc5cnn6cc(F)ccc56)c(Cl)c4n3C)cc2C(C)(C)C)C1 [Example I-170] | 10 to 50
CNc1nccn2ncc(Oc3cnc4nc(Nc5cc(C(F)(F)F)cn(-c6cnn(C)c6)c5=O)n(C)c4c3Cl)c12 [Example I-171, 3-((7-chloro-1-methyl-6-((4-(methylamino)pyrazolo[1,5-a]pyrazin-3-yl)oxy)-1H-imidazo[4,5-b]pyridin-2-yl)amino)-1-(1-methyl-1H-pyrazol-4-yl)-5-(trifluoromethyl)pyridin-2(1H)-one] | < 10
CN1CCN(c2cc(Nc3nc4ncc(Oc5cnn6ccncc56)c(Cl)c4n3C)cc(C(F)(F)F)c2)CC1 [Example I-172, 7-chloro-1-methyl-N-(3-(4-methylpiperazin-1-yl)-5-(trifluoromethyl)phenyl)-6-(pyrazolo[1,5-a]pyrazin-3-yloxy)-1H-imidazo[4,5-b]pyridin-2-amine] | < 10
Cn1c(Nc2ccc(CN3CCC(F)(F)CC3)c(C(F)(F)F)c2)nc2ncc(Oc3cnn4ccncc34)c(Cl)c21 [Example I-173, 7-chloro-N-(4-((4,4-difluoropiperidin-1-yl)methyl)-3-(trifluoromethyl)phenyl)-1-methyl-6-(pyrazolo[1,5-a]pyrazin-3-yloxy)-1H-imidazo[4,5-b]pyridin-2-amine] | 10 to 50
Cn1c(Nc2ccc(CN3CCCC(F)(F)C3)c(C(F)(F)F)c2)nc2ncc(Oc3cnn4ccncc34)c(Cl)c21 [Example I-174, 7-chloro-N-(4-((3,3-difluoropiperidin-1-yl)methyl)-3-(trifluoromethyl)phenyl)-1-methyl-6-(pyrazolo[1,5-a]pyrazin-3-yloxy)-1H-imidazo[4,5-b]pyridin-2-amine] | 10 to 50
CO[C@H]1CCN(Cc2ccc(Nc3nc4ncc(Oc5cnn6ccncc56)c(Cl)c4n3C)cc2C(F)(F)F)C1 [Example I-175, (S)-7-chloro-N-(4-((3-methoxypyrrolidin-1-yl)methyl)-3-(trifluoromethyl)phenyl)-1-methyl-6-(pyrazolo[1,5-a]pyrazin-3-yloxy)-1H-imidazo[4,5-b]pyridin-2-amine] | 10 to 50
CO[C@@H]1CCN(Cc2ccc(Nc3nc4ncc(Oc5cnn6ccncc56)c(Cl)c4n3C)cc2C(F)(F)F)C1 [Example I-176, (R)-7-chloro-N-(4-((3-methoxypyrrolidin-1-yl)methyl)-3-(trifluoromethyl)phenyl)-1-methyl-6-(pyrazolo[1,5-a]pyrazin-3-yloxy)-1H-imidazo[4,5-b]pyridin-2-amine] | < 10
Cn1cc(C(F)(F)F)cc(Nc2nc3ncc(Oc4cnn5ccncc45)c(Cl)c3n2C)c1=O [Example I-177, 3-((7-chloro-1-methyl-6-(pyrazolo[1,5-a]pyrazin-3-yloxy)-1H-imidazo[4,5-b]pyridin-2-yl)amino)-1-methyl-5-(trifluoromethyl)pyridin-2(1H)-one] | < 10
CNc1nccn2ncc(Oc3cnc4nc(Nc5cc(C(F)(F)F)cn(C6CC6)c5=O)n(C)c4c3Cl)c12 [Example I-178, 3-((7-chloro-1-methyl-6-((4-(methylamino)pyrazolo[1,5-a]pyrazin-3-yl)oxy)-1H-imidazo[4,5-b]pyridin-2-yl)amino)-1-cyclopropyl-5-(trifluoromethyl)pyridin-2(1H)-one] | < 10
CNc1nccn2ncc(Oc3cnc4nc(Nc5cc(C(F)(F)F)cn(-c6cccnc6)c5=O)n(C)c4c3Cl)c12 [Example I-179, 3-((7-chloro-1-methyl-6-((4-(methylamino)pyrazolo[1,5-a]pyrazin-3-yl)oxy)-1H-imidazo[4,5-b]pyridin-2-yl)amino)-5-(trifluoromethyl)-2H-[1,3′-bipyridin]-2-one] | < 10
Cc1cn(-c2cc(Nc3nc4ncc(Oc5cnn6ccncc56)c(Cl)c4n3C)cc(C(F)(F)F)c2)cn1 [Example I-180, 7-chloro-1-methyl-N-(3-(4-methyl-1H-imidazol-1-yl)-5-(trifluoromethyl)phenyl)-6-(pyrazolo[1,5-a]pyrazin-3-yloxy)-1H-imidazo[4,5-b]pyridin-2-amine] | < 10
CO[C@H]1CCN(Cc2cc(Nc3nc4ncc(Oc5cnn6ccncc56)c(Cl)c4n3C)cc(C(F)(F)F)c2)C1 [Example I-181, (S)-7-chloro-N-(3-((3-methoxypyrrolidin-1-yl)methyl)-5-(trifluoromethyl)phenyl)-1-methyl-6-(pyrazolo[1,5-a]pyrazin-3-yloxy)-1H-imidazo[4,5-b]pyridin-2-amine] | < 10
CO[C@@H]1CCN(Cc2cc(Nc3nc4ncc(Oc5cnn6ccncc56)c(Cl)c4n3C)cc(C(F)(F)F)c2)C1 [Example I-182, (R)-7-chloro-N-(3-((3-methoxypyrrolidin-1-yl)methyl)-5-(trifluoromethyl)phenyl)-1-methyl-6-(pyrazolo[1,5-a]pyrazin-3-yloxy)-1H-imidazo[4,5-b]pyridin-2-amine] | < 10
Cn1c(Nc2cc(C(F)(F)F)cn(CCO)c2=O)nc2ncc(Oc3cnn4ccc(N5CCOCC5)cc34)c(Cl)c21 [Example I-183, 3-((7-chloro-1-methyl-6-((5-morpholinopyrazolo[1,5-a]pyridin-3-yl)oxy)-1H-imidazo[4,5-b]pyridin-2-yl)amino)-1-(2-hydroxyethyl)-5-(trifluoromethyl)pyridin-2(1H)-one] | < 10
CNc1nccn2ncc(Oc3cnc4nc(Nc5ccc(CN6CCC(F)(F)C6)c(C(F)(F)F)c5)n(C)c4c3Cl)c12 [Example I-184] | 50 to 1000
Cn1c(Nc2cc(C(C)(C)C)n(C3CC4(COC4)C3)n2)nc2ncc(Oc3cnn4ccncc34)c(C#N)c21 [Example I-187, 2-((5-(tert-butyl)-1-(2-oxaspiro[3.3]heptan-6-yl)-1H-pyrazol-3-yl)amino)-1-methyl-6-(pyrazolo[1,5-a]pyrazin-3-yloxy)-1H-imidazo[4,5-b]pyridine-7-carbonitrile] | 10 to 50
